The IC50 is the midpoint of a concentration-inhibition curve.

Data on 15 molecules can be found in patent publication US20230139171A1 (SITA Information Networking Computing UK Limited, priority 2019, published 2023).

For one assay, the target named is T1, human TLR8 (Homo sapiens, UniProt Q9NR97).
T1 construct: host or cells: HEK-Blue cells
T1 sequence (Q9NR97 27-1041): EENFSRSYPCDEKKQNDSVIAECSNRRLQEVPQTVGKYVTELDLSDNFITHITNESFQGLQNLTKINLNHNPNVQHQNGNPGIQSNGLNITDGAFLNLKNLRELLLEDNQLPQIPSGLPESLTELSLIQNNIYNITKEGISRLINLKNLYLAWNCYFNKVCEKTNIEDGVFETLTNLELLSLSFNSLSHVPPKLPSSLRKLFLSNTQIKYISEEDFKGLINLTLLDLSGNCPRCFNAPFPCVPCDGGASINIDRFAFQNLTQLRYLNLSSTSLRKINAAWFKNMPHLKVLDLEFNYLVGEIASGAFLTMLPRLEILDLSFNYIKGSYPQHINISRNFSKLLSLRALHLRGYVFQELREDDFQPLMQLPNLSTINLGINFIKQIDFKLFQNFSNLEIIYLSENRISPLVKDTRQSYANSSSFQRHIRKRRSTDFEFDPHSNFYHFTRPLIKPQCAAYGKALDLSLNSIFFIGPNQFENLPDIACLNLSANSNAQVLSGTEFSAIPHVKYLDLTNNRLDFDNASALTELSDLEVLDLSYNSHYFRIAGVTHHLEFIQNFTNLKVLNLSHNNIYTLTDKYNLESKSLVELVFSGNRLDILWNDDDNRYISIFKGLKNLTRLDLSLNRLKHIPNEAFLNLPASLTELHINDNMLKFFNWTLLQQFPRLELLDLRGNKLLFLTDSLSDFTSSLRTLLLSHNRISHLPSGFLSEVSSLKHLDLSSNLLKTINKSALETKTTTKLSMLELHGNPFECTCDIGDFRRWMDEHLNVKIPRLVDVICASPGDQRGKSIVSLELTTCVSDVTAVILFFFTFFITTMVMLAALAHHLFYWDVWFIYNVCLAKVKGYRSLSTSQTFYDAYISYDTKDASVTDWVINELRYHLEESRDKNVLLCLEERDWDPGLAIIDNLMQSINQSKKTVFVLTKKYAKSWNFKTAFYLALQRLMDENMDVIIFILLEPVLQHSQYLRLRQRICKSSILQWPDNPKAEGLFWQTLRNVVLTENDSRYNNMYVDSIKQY
The experiment in a line: TLR8 inhibition reporter assay (HEK-Blue cells, SEAP reporter, R848 stimulation). It is filed as cell-based. As to conditions: HEK-Blue cells overexpressing human TLR8, SEAP reporter, R848 15.9 μM; read-out: TLR8 IC50. On the procedure:
(§1) TLR7/8/9 Inhibition Reporter Assays
(§2) HEK-Blue™-cells (Invivogen) overexpressing human TLR7, TLR8 or TLR9 receptors were used for screening inhibitors of these receptors using an inducible SEAP (secreted embryonic alkaline phosphatase) reporter gene under the control of the IFN-β minimal promoter fused to five NF-κB and AP-1-binding sites. Briefly, cells are seeded into Greiner 384 well plates (15000 cells per well for TLR7, 20,000 for TLR8 and 25,000 for TLR9) and then treated with test compounds in DMSO to yield a final dose response concentration range of 0.05 nM-50 μM. After a 30 minute compound pre-treatment at room temperature, the cells are then stimulated with a TLR7 ligand (gardiquimod at a final concentration of 7.5 μM), TLR8 ligand (R848 at a final concentration of 15.9 μM) or TLR9 ligand (ODN2006 at a final concentration of 5 nM) to activate NF-κB and AP-1 which induce the production of SEAP. After a 22 hour incubation at 37° C., 5% CO2, SEAP levels are determined with the addition of HEK-Blue™ Detection reagent (Invivogen), a cell culture medium that allows for detection of SEAP, according to manufacturer's specifications. The percent inhibition is determined as the % reduction in the HEK-Blue signal present in wells treated with agonist plus DMSO alone compared to wells treated with a known inhibitor.
For orientation: A reporter such as luciferase makes a cellular process visible.

For the next assay, the target named is T2, human TLR7 (Homo sapiens, UniProt Q9NYK1).
T2 construct: host or cells: HEK-Blue cells
T2 sequence (Q9NYK1 27-1049): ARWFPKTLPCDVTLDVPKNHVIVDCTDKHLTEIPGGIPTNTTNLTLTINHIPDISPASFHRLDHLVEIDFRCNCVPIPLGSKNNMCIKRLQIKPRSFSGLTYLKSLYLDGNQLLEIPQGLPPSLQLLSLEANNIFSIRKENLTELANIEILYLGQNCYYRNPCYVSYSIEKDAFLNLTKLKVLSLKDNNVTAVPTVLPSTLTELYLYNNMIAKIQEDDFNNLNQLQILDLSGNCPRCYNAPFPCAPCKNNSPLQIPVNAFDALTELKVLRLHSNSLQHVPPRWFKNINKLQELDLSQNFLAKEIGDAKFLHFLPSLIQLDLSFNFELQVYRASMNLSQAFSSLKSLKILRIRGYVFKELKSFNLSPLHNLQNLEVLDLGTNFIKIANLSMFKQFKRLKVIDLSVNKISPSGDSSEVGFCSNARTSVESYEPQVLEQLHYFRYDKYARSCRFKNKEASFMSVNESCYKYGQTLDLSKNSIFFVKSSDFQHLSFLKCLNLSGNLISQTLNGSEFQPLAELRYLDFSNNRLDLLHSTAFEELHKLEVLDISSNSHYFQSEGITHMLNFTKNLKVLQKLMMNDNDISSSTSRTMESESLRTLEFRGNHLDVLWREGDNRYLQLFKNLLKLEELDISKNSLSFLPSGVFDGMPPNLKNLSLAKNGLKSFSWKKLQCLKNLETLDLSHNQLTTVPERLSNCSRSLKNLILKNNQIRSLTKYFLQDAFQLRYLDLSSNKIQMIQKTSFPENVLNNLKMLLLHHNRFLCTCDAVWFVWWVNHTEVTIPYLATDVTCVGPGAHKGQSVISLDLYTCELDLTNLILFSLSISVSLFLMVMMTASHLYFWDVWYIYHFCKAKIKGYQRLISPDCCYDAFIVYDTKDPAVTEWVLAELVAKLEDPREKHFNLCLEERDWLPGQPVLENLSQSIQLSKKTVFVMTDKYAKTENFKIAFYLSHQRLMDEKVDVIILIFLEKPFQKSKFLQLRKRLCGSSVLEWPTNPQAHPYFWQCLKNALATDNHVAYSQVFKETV
The experiment in a line: TLR7 inhibition reporter assay (HEK-Blue cells, SEAP reporter, gardiquimod stimulation). It is filed as cell-based. The conditions noted are these: HEK-Blue cells overexpressing human TLR7, SEAP reporter, gardiquimod 7.5 μM; read-out: TLR7 IC50. On the procedure: as §1, §2

On to `CNC(=O)CN1CCN(c2nc3c(C(C)C)c(-c4cn5ncnc5c(C)c4C)[nH]c3s2)[C@@H](C)C1` [Example 342, (S)-2-(4-(5-(7,8-dimethyl-[1,2,4]triazolo[1,5-a]pyridin-6-yl)-6-isopropyl-4H-pyrrolo[3,2-d]thiazol-2-yl)-3-methylpiperazin-1-yl)-N-methylacetamide], for which the figures for the IC50 on human TLR8 and at human TLR7 were 0.0126 µM and 0.0196 µM, respectively.

For the molecule `Cc1c(-c2[nH]c3sc(N4CCN(CC(=O)N(C)C)C[C@@H]4C)nc3c2C(C)C)cn2ncnc2c1C` [Example 343, (S)-2-(4-(5-(7,8-dimethyl-[1,2,4]triazolo[1,5-a]pyridin-6-yl)-6-isopropyl-4H-pyrrolo[3,2-d]thiazol-2-yl)-3-methylpiperazin-1-yl)-N,N-dimethylacetamide], the IC50 at human TLR8 is 0.0033 µM; at human TLR7 it was 0.0241 µM.

Consider `Cc1c(-c2[nH]c3sc(N4CCN(CCS(C)(=O)=O)C[C@@H]4C)nc3c2C(C)C)cn2ncnc2c1C` [Example 344, (S)-5-(7,8-dimethyl-[1,2,4]triazolo[1,5-a]pyridin-6-yl)-6-isopropyl-2-(2-methyl-4-(2-(methylsulfonyl)ethyl)piperazin-1-yl)-4H-pyrrolo[3,2-d]thiazole], for which the results for the IC50 at human TLR8 and on human TLR7 were 0.0127 µM and 0.039 µM, respectively.

Regarding `Cc1c(-c2[nH]c3sc(N4CCN(CC(C)(C)O)C[C@@H]4C)nc3c2C(C)C)cn2ncnc2c1C` [Example 345, (S)-1-(4-(5-(7,8-dimethyl-[1,2,4]triazolo[1,5-a]pyridin-6-yl)-6-isopropyl-4H-pyrrolo[3,2-d]thiazol-2-yl)-3-methylpiperazin-1-yl)-2-methylpropan-2-ol], the IC50 at human TLR8 was determined as 0.00312 µM; at human TLR7 it was 0.0234 µM.

For `Cc1c(-c2[nH]c3sc(N4CCN(C(=O)C5CCS(=O)(=O)CC5)C[C@@H]4C)nc3c2C(C)C)cn2ncnc2c1C` [Example 347, (S)-(4-(5-(7,8-dimethyl-[1,2,4]triazolo[1,5-a]pyridin-6-yl)-6-isopropyl-4H-pyrrolo[3,2-d]thiazol-2-yl)-3-methylpiperazin-1-yl)(1,1-dioxidotetrahydro-2H-thiopyran-4-yl)methanone], the IC50 was 0.0445 µM on human TLR8 and 0.0229 µM at human TLR7.

Regarding `Cc1c(-c2[nH]c3sc(N4CCN(C5COC5)C[C@@H]4C)nc3c2C(C)C)cn2ncnc2c1C` [Example 348, (S)-5-(7,8-dimethyl-[1,2,4]triazolo[1,5-a]pyridin-6-yl)-6-isopropyl-2-(2-methyl-4-(oxetan-3-yl)piperazin-1-yl)-4H-pyrrolo[3,2-d]thiazole], the IC50 is 0.0224 µM at human TLR8 and 0.0191 µM at human TLR7.

In the case of `Cc1c(-c2[nH]c3sc(N4CCN(C5CCC5)C[C@@H]4C)nc3c2C(C)C)cn2ncnc2c1C` [Example 349], the IC50 was 0.00185 µM on human TLR8 and 0.091 µM on human TLR7.

`Cc1cc(-c2[nH]c3sc(N4CCN(C(=O)CN(C)C)C[C@H]4C)nc3c2C(C)C)cn2ncnc12` [Example 360, (R)-2-(dimethylamino)-1-(4-(6-isopropyl-5-(8-methyl-[1,2,4]triazolo[1,5-a]pyridin-6-yl)-4H-pyrrolo[3,2-d]thiazol-2-yl)-3-methylpiperazin-1-yl)ethan-1-one]: the figures for the IC50 on human TLR8 and on human TLR7 were 1.33 µM and 1.22 µM, respectively.

As to `Cc1c(-c2[nH]c3sc(C(=O)NCCCN4CCCC4=O)nc3c2C(C)C)cn2ncnc2c1C` [Example 371, 5-(7,8-dimethyl-[1,2,4]triazolo[1,5-a]pyridin-6-yl)-6-isopropyl-N-(3-(2-oxopyrrolidin-1-yl)propyl)-4H-pyrrolo[3,2-d]thiazole-2-carboxamide], the figures for the IC50 at human TLR8 and on human TLR7 were 0.0294 µM and 0.0721 µM, respectively.

For the molecule `Cc1c(-c2[nH]c3sc(C(=O)N4CCCC4)nc3c2C(C)C)cn2ncnc2c1C` [Example 377, (5-(7,8-dimethyl-[1,2,4]triazolo[1,5-a]pyridin-6-yl)-6-isopropyl-4H-pyrrolo[3,2-d]thiazol-2-yl)(pyrrolidin-1-yl)methanone], the IC50 on human TLR8 turned out to be 0.0182 µM; at human TLR7, 0.0569 µM.

As to `Cc1c(-c2[nH]c3sc(C(=O)N4CCNC(=O)C4)nc3c2C(C)C)cn2ncnc2c1C` [Example 378, 4-(5-(7,8-dimethyl-[1,2,4]triazolo[1,5-a]pyridin-6-yl)-6-isopropyl-4H-pyrrolo[3,2-d]thiazole-2-carbonyl)piperazin-2-one], the IC50 is 0.0122 µM at human TLR8 and 0.0294 µM on human TLR7.

As for `Cc1c(-c2[nH]c3sc(C(=O)N4CCN(S(C)(=O)=O)CC4)nc3c2C(C)C)cn2ncnc2c1C` [Example 384, (5-(7,8-dimethyl-[1,2,4]triazolo[1,5-a]pyridin-6-yl)-6-isopropyl-4H-pyrrolo[3,2-d]thiazol-2-yl)(4-(methylsulfonyl)piperazin-1-yl) methanone], the IC50 on human TLR8 was determined as 0.0201 µM; on human TLR7 it was 0.0395 µM.

For the molecule `Cc1c(-c2[nH]c3sc(C(N)=O)nc3c2C(C)C)cn2ncnc2c1C` [Example 385, 5-(7,8-dimethyl-[1,2,4]triazolo[1,5-a]pyridin-6-yl)-6-isopropyl-4H-pyrrolo[3,2-d]thiazole-2-carboxamide], the IC50 at human TLR8 was 0.0314 µM; on human TLR7, 0.0588 µM.

Turning to `COc1cc(-c2[nH]c3sc(C(=O)NCC(F)(F)F)nc3c2C(C)C)cn2ncnc12` [Example 390, 6-isopropyl-5-(8-methoxy-[1,2,4]triazolo[1,5-a]pyridin-6-yl)-N-(2,2,2-trifluoroethyl)-4H-pyrrolo[3,2-d]thiazole-2-carboxamide], the IC50 on human TLR8 is 0.481 µM; on human TLR7, 0.0936 µM.

`Cc1cc(-c2[nH]c3sc(C(N)=O)nc3c2C(C)C)cn2ncnc12` [Example 391, 6-isopropyl-5-(8-methyl-[1,2,4]triazolo[1,5-a]pyridin-6-yl)-4H-pyrrolo[3,2-d]thiazole-2-carboxamide]: the IC50 at human TLR8 is 0.118 µM; on human TLR7, 0.102 µM.
